Measurements reported in patent publication US12528840B2, “Transcription active complex targeting cancer drug from viral protein sequence” (The Regents of the University of California, priority 2020, dated 2026).

Assays:
BCBL-1 PEL cell line = assay: PEL xenograft study in NRG mice
Description: We mapped the responsible domain and molecular mechanisms with biochemical and genetic approaches (FIG. 1).
Based on cell killing efficacies of the peptide in vitro, we select two peptides and examine the efficacies to inhibit tumor growth in xenograft models. We use a PEL cell xenograft models. […] Standardized PK/PD studies are completed in rat models at the UCD comprehensive cancer center PK/PD core facility.
Amino acid sequence alignment identified homologous protein sequences in other gamma-herpesvirus protein sequence (The Top table in FIG. 8a, also shown in FIG. 2). Based on their alignment, “non-natural” protein sequences were generated by substituting specific amino acids (The peptides are: Wt d1-1, DS 3-1, DE 3-1, and Mut d1-1 (control peptide) from the top to the bottom in the Bottom Table in FIG. 8a). Those four peptides were used in MTT assays in FIG. 8b to examine the effects on cell growth of BCBL-1 […] effusion lymphoma (PEL) cell line. Also tested are three D-amino acid substitutions first two amino acids and c-terminal amino acid (ST d3-1), in comparison with one D-amino acid peptide (N-terminus) (Wt d3-1).

MYC = assay: SLAM-seq, MYC transcription; format: cell-based; details: 24 μM, 30 min then 4sU 1 hour
Experimental: FIG. 9. Profiling Peptide targets with Thiol(SH)-linked alkylation for the metabolic sequencing of RNA (SLAM seq). Differences in active transcription in presence of peptide drug was examined. […] Total RNA-sequence performed 24 hours after drug incubation.
Thiol(SH)-linked alkylation for the metabolic sequencing of RNA (SLAM seq), an orthogonal-chemistry-based RNA sequencing technology detects 4-thiouridine (s4U) incorporation in RNA species at single-nucleotide resolution. Using SLAM-seq method, BC-1 cells were incubated with peptide drug and peptide with three amino acid substitute to alanine was used as a control peptide. Peptide drug was incubated in BC-1 cell culture (24 μM) and after 30 min drug incubation, 4sU (300 μM in final concentration) was added into culture media for 1 hour. Total RNA was isolated in the end of 1 hour 4sU incubation and alkylated RNA samples were subjected to SLAM-seq. Samples were duplicated and changed gene expression vs mock-treated cells (P<0.05) was marked in red. […] IGV viewer was used to visualize sequence reads at MYC region (Chr. 8). […] Log 2 fold changes and adjusted P-value of MYC down regulation in both BCBL-1 and BC-1 cells are depicted in underneath of panel.

[1] = test system: multiple cancer cell lines; assay: MTT assay on multiple cancer cell lines; format: cell-based; details: 0-96 μM; BCBL-1, Ramos, SU-DHL-10, HH, Jurkat, THP-1, U937, A549
Experimental: FIG. 6. Viral and cellular responses to K-Rta peptide; identification of VGN50. (a) Protein sequence alignment. FIG. 6(A) The effect of VGN50 on various cancer cell types. MTT assays were performed with the indicated cell lines treated with various VGN50 concentrations. The O.D. of mock-treated samples were set as 100%, and O.D. from detergent treated cells were set as 0%. Percentage viability+/−SD was calculated for each treatment (N=3 samples/treatment). FIG. 6(B) Viability assay with flow cytometry. Cell viability was measured in triplicate with live/dead staining and the cell killing effects on cancer cells was compared with normal peripheral blood mononuclear cells (PBMC) from three healthy donors. Results are presented as percentage viability+/−SD deviation (N=3 samples/group).
As shown in FIG. 6(a), multiple cancer cell lines were used for MTT assay to evaluate cancer cell killing efficacies of the MBK50 peptide at different concentrations (cell variability studies). […] Importantly, human peripheral blood mononuclear cells (PBMCs) from healthy donors were approximately 10-fold less sensitive to MBK-mediated killing compared to myeloid and lymphoid cancer cell lines (e.g., THP-1 and BCBL-1) as assessed by flow cytometry after live/dead staining (FIG. 6(b)). […]

MYC target genes = assay: Total RNA sequencing with Gene Set Enrichment Analyses; format: cell-based; details: total RNA-sequence 24 hours post-drug treatment, PEL cells
Experimental: FIGS. 1A-H. Viral protein sequence based cancer drug. (FIG. 1A) Discovery of hijacking transcription machinery in KSHV reactivating cells (Chen et al., J. Virol 2017). […] (FIG. 1B) Reporter assay. KSHV ORF50 overexpression inhibits MYC activation. (FIG. 1C) Chromatin immunoprecipitation with Mass Spectrometry. Proteins inducibly interact with both ORF50 and RNA polII are shown. […] (FIG. 1E) Mapping of interacting domain. GST-pull down was performed to identify NCoA2 binding domains. Purified NCoA2 was made from recombinant baculovirus infected cells and KSHV ORF50 deletion proteins were made in E. coli. Peptides are then generated as TAT-fusion for cell penetration. (FIG. 1F) ChIP-seq and RNA-seq. ChIP-seq was performed to identify NCOA2 target genes in primary effusion lymphoma cells. NCoA2 localization is highly associated with active genes and localizes with RNA pol II at enhancer regions. […] The qRT-PCR was performed with specific primers. (FIG. 1H) Gene set enrichment analyses (GSEA). […] Forty-eight hours later, live cells were measured by applying MTS. […]
Thiol(SH)-linked alkylation for the metabolic sequencing of RNA (SLAM seq), an orthogonal-chemistry-based RNA sequencing technology detects 4-thiouridine (s4U) incorporation in RNA species at single-nucleotide resolution. […] IGV viewer was used to visualize sequence reads at MYC region (Chr. 8). […]

activated CD3 T cells = assay: Cytokine production by anti-CD3 stimulated PBMCs (Luminex 10 plex); format: cell-based, human; details: 32 μM, 48 hours, vs untreated and control peptide-treated cultures
Experimental: The effect of the peptide on cytokine production by human lymphoctyes were studied by an in vitro culture system. PBMCs were stimulated with anti-CD3 antibody in the presence of PBS, MBK50 (32 μM) or Mutant peptide (32 μM) in duplicates for 48 hours. The supernatant was recovered and assayed for 10 common cytokines 4-1(3, IL-2, IL-4, IL-5, IL-6, IL-8, IL-10, GM-CSF, IFNγ, TNFα) with Luminex using human 10 plex beads assay kit (Invitrogen).

LSSILQGLYQLDT [MBK50] was tested, and the “efficacy to target PEL in xenograft” value (BCBL-1 PEL cell line) was “demonstrated efficacies”, the “toxicity to the host mice” value (BCBL-1 PEL cell line; xenograft studies) was “without any measurable toxicities” and the “MYC transcript species containing T→C mutation (Myc transcription)” value (MYC) was “significantly decreased”. The “MYC transcript species containing T→C mutation (Myc transcription)” value (MYC; listed as peptide drug) was “strongly down-regulated”, the “cancer cell killing efficacy across cell lines” value [1] was “more effective to lymphoid cell lines” and the “GSEA of MYC target genes” value (MYC target genes) was “highest enrichment scores with zero false discovery rate”. For the same sequence, the “GSEA of MYC target genes” value (MYC target genes; listed as Wt-peptide) was “enrichment of MYC-target gene down-regulation” and the “cytokine levels in supernatant, all detected except IL-10 and TNFα” value (activated CD3 T cells) was “significantly reduced”.
